Reference: patent publication US9079843B2, “23-yne-vitamin D3 derivative” (TEIJIN PHARMA LIMITED, priority 2010, dated 2015)
Blank lines part the entries; values can stand above or below the molecule they belong to.

How the values were obtained:
[1] = biological target: T1, human VDR (Homo sapiens, UniProt P11473); assay: VDR transcriptional activity in human osteoblast (HOS cells), osteocalcin promoter luciferase reporter; type: cell-based; settings: 24 hours incubation
T1 construct: expressed in transfected cells; host or cells: HOS cells (human osteoblast, ATCC)
T1 sequence (P11473 1-427): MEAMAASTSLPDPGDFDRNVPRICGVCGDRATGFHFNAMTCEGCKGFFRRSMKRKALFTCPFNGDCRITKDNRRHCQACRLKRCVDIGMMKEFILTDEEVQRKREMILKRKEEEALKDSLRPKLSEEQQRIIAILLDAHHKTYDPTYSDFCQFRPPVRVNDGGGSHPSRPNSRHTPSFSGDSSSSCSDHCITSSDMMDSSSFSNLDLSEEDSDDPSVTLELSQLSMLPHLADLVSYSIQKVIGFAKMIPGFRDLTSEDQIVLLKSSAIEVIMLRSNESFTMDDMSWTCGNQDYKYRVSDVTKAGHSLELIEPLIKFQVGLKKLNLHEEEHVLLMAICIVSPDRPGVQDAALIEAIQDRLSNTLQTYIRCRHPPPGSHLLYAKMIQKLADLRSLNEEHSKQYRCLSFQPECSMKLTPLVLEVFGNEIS
T1 sequence (P19793 1-462 partner): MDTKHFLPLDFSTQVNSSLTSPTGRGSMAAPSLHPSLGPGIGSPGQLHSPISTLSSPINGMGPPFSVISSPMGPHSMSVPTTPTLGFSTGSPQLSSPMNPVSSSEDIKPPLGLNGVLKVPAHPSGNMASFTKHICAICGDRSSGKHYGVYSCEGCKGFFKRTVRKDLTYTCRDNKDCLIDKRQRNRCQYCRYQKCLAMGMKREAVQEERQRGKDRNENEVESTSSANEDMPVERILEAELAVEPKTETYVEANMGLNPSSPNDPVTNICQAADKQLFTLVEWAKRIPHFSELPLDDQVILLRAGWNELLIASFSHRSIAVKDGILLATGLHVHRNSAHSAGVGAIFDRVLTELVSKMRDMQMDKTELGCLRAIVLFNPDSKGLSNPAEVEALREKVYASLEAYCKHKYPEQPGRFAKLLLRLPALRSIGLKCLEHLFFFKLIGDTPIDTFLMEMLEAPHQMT
From the text: (1) A reporter vector was constructed by inserting the sequence of the promoter region of human ostocalcin gene into the upstream of luciferase gene using a pGL3 vector (Promega Corporation), wherein the promoter region of the human ostocalcin gene was cloned using cDNA acquired from HOS cells (purchased from ATCC) by a method known in the literature (Ozono et al., The Journal of Biological Chemistry, 265, 21881-21888 (1990)). The expression vector was constructed by inserting a DNA sequence, which encodes human VDR and human RXR, into a pcDNA3 vector (Invitrogen Corporation). The HOS cells were incubated in a DMEM medium containing 10% FBS under conditions of 37° C. and 5% CO2, and subcultured every 2 or 3 days.
(2) The cells which had been subcultured were recovered by centrifugation and were suspended in serum- and phenol red-free DMEM medium in a density of 4×10^5 cells/mL. This was seeded on a 96-well plate in an amount of 0.1 mL/well. To this system, various vectors described in (1) were added in an amount of 0.05 mL per well using Lipofectamine 2000 (Invitrogen Corporation). After incubation at 37° C. for 3 hours, 2 μl each of ethanol solutions of the test compounds of various concentrations or ethanol as a control was added to each well. After incubation at 37° C. for 24 hours, the medium was removed, the cells were washed once with PBS(−), and thereafter luciferase activity was measured by using a luminometer (Berthold Technologies GmbH & Co. KG) using Dual-Glo Luciferase Assay Kit (Promega Corporation).

[2] = test system: osteoporosis model (oophorectomy) rats; assay: Bone mineral density-enhancing effect in osteoporosis model (oophorectomy) rats; type: in vivo, rat; settings: OVX rats, 5 times a week for 4 weeks, fourth and fifth lumbar vertebrae
Protocol: (§1) After 24 hours from the final administration, blood was drawn under ether anesthesia and the rats were put down. Under anesthesia, bone mineral density of the fourth and fifth lumbar vertebrae was measured by using a dual-energy X-ray bone mineral analyzer (QDR-2000; Hologic, Inc.). For comparison, a sham surgery (sham) group (abdominal operation is performed but the ovary is not removed; the test compounds are not administered) and an oophorectomy (OVX) group (subjected to oophorectomy but the test compounds are not administered) were also subjected to measurement of the bone mineral density of lumbar vertebrae at the time of dissection. Further, measurement of calcium concentration in the serum of each group was also performed.

[3] = biological target: T2, VDR (Homo sapiens, UniProt P11473); assay: Evaluation of VDR affinity (PolarScreen Vitamin D Receptor Competitor Assay, fluorescence polarization)
T2 sequence (P11473 1-427): T1 sequence (P11473 1-427)
Protocol: VDR was evaluated by using a commercial measurement and evaluation kit, for example, “PolarScreen Vitamin D Receptor Competitor Assay, Red, Cat. No. PV4569” marketed by Invitrogen Corporation, according to the following procedure.
Solutions of the compounds were added to two wells each of a 384-well black plate in 10 μl aliquots. To each well, VDR/Fluoromone VDR Complex included in the kit was added in 10 μl aliquots and allowed to react at room temperature for 2 hours.

[4] = Serum calcium concentration in osteoporosis model (oophorectomy) rats; settings: OVX rats; for Serum calcium value: 5 times a week for 4 weeks, 24 hours after final administration
Protocol: as §1

Compound: C=C1C(=CC=C2CCCC3(C)C2CCC3C(C)CC#CC(C)(C)O)CC(O)C(OCCC(=O)OC)C1O [Compound C-2, (5Z,7E)-(1R,2S,3R,20R)-2-(2-methoxycarbonylethoxy)-23-yne-9,10-seco-5,7,10(19)-cholestatriene-1,3,25-triol]
EC50 [1]: ≤ 0.2 nM
Bone mineral density ([2]; dose 6 ng/kg): 0.2196 ± 0.0177 g/mL
Bone mineral density ([2]; dose 13 ng/kg): 0.2308 ± 0.0081 g/mL

Compound: C=C1C(=CC=C2CCCC3(C)C2CCC3C(C)CC#CC(C)(C)O)CC(O)C(OCCC(=O)O)C1O [Compound C-1, (5Z,7E)-(1R,2S,3R,20R)-2-(2-carboxyethoxy)-23-yne-9,10-seco-5,7,10(19)-cholestatriene-1,3,25-triol]
EC50 [1]: ≤ 0.2 nM
Bone mineral density ([2]; dose 4 ng/kg): 0.2223 ± 0.0118 g/mL
Bone mineral density ([2]; dose 10 ng/kg): 0.2400 ± 0.0065 g/mL
VDR affinity (in words) [3]: very strong VDR affinity

Compound: C=C1/C(=C\C=C2/CCC[C@]3(C)[C@@H]([C@H](C)CC#CC(C)(C)O)CC[C@@H]23)C[C@@H](O)[C@H](OCCC(=O)OCOC(=O)C(C)(C)C)[C@@H]1O [Compound C-7, (5Z,7E)-(1R,2S,3R,20R)-2-((t-butylcarbonyloxy)methoxycarbonylethoxy)-23-yne-9,10-seco-5,7,10(19)-cholestatriene-1,3,25-triol]
Bone mineral density ([2]; dose 6 ng/kg): 0.2322 ± 0.0092 g/mL
Bone mineral density ([2]; dose 13 ng/kg): 0.2548 ± 0.0143 g/mL
Serum calcium value ([4]; dose 6 ng/kg): 9.83 ± 0.22 mg/dL
Serum calcium value ([4]; dose 13 ng/kg): 10.07 ± 0.22 mg/dL

Compound: C=C1/C(=C\C=C2/CCC[C@]3(C)[C@@H]([C@H](C)CCCC(C)(C)O)CC[C@@H]23)C[C@@H](O)[C@H](OCCCO)[C@@H]1O [2α-(3-hydroxypropyl)oxy-1α,25-dihydroxyvitamin D3, reference compound]
Bone mineral density ([2]; dose 10 ng/kg): 0.2269 ± 0.0161 g/mL
Bone mineral density ([2]; dose 25 ng/kg): 0.2473 ± 0.0157 g/mL
Serum calcium value ([4]; dose 10 ng/kg): 10.30 ± 0.37 mg/dL
increase in the serum calcium value ([4]; dose 25 ng/kg necessary for bone mineral density equal to or greater than sham group): ≥ 1 mg/dL
Serum calcium value ([4]; dose 25 ng/kg): 11.20 ± 0.20 mg/dL

Compound: C=C1/C(=C\C=C2/CCC[C@]3(C)[C@@H]([C@H](C)CC#CC(C)(C)O)CC[C@@H]23)C[C@@H](O)[C@H](OCCC(=O)OC(C)C)[C@@H]1O [Compound C-5, (5Z,7E)-(1R,2S,3R,20R)-2-(2-(1-methyl)ethoxycarbonylethoxy)-23-yne-9,10-seco-5,7,10(19)-cholestatriene-1,3,25-triol]
Bone mineral density ([2]; dose 17 ng/kg): 0.2316 ± 0.0134 g/mL
Bone mineral density ([2]; dose 50 ng/kg): 0.2354 ± 0.0126 g/mL
Serum calcium value ([4]; dose 17 ng/kg): 9.60 ± 0.15 mg/dL
Serum calcium value ([4]; dose 50 ng/kg): 10.10 ± 0.21 mg/dL

Compound: C=C1C(=CC=C2CCCC3(C)C2CCC3C(C)CC#CC(C)(C)O)CC(O)C(CC(C)C(=O)OC(C)(C)C)C1O [Compound D-6, (5Z,7E)-(1S,2S,3R,20R)-2-(2-(1,1-dimethyl)ethoxycarbonylpropyl)-23-yne-9,10-seco-5,7,10(19)-cholestatriene-1,3,25-triol]
Bone mineral density ([2]; dose 50 ng/kg): 0.2365 ± 0.0204 g/mL
Serum calcium value ([4]; dose 50 ng/kg): 9.76 ± 0.29 mg/dL

Compound: C=C1C(=CC=C2CCCC3(C)C2CCC3C(C)CC#CC(C)(C)O)CC(O)C(CCCC(=O)O)C1O [Compound D-1]
EC50 [1]: ≤ 0.02 nM
Bone mineral density ([2]; dose 6 ng/kg): 0.2211 ± 0.0175 g/mL
Bone mineral density ([2]; dose 13 ng/kg): 0.2360 ± 0.0143 g/mL
VDR affinity (in words) [3]: very strong VDR affinity

Now from value to molecule, other results behind:

EC50 [1]: ≤ 0.02 nM
Compound: C=C1C(=CC=C2CCCC3(C)C2CCC3C(C)CC#CC2(O)CCCC2)CC(O)C(OCCC(=O)O)C1O [Compound F-2, (5Z,7E)-(1R,2S,3R,20R)-2-(2-carboxyethoxy)-26,27-nor-25-cyclopentyl-23-yne-9,10-seco-5,7,10(19)-cholestatriene-1,3,25-triol]

EC50 [1]: ≤ 0.2 nM
Compound: C=C1/C(=C\C=C2/CCC[C@@]3(C)C2CC[C@@H]3[C@H](C)CC#CC(C)(C)O)C[C@@H](O)[C@H](OCC2(C(=O)O)CC2)[C@@H]1O (stereo partly drawn) [Compound E-1, (5Z,7E)-(1R,2S,3R,20R)-2-((2-carboxy-2,2-ethano)ethoxy)-23-yne-9,10-seco-5,7,10 (19)-cholestatriene-1,3,25-triol]

EC50 [1]: ≤ 0.02 nM
Compound: C=C1C(=CC=C2CCCC3(C)C2CCC3C(C)CC#CC(O)(CC)CC)CC(O)C(OCCC(=O)O)C1O [Compound F-1, (5Z,7E)-(1R,2S,3R,20R)-2-(2-carboxyethoxy)-26,27-dimethyl-23-yne-9,10-seco-5,7,10(19)-cholestatriene-1,3,25-triol]
Bone mineral density ([2]; dose 6 ng/kg): 0.2366 ± 0.0139 g/mL
